The values that follow come from US20250276068A1, “PHARMACEUTICAL COMPOSITIONS OF POLYPEPTIDE CONJUGATES AND METHODS OF USES THEREOF” (BEIJING QL BIOPHARMACEUTICAL CO., LTD., priority 2022, published 2025).

*1 amine or outer side, *2 acyl side, *3 side chain or, on linkers, in order; H or OH if unused. Side-chain parts run from the residue outwards. [ ]: non-standard residue; d: D form. The star is where a group is joined. C18 diacid = O=C(O)CCCCCCCCCCCCCCCCC(=O)*; γGlu = O=C(O)[C@H](CCC(=O)[*:2])N[*:1]; AEEA = NCCOCCOCC(=O)O; Aib = CC(C)(N)C(=O)O

The target in test [1] is GLP-1 receptor (Homo sapiens, UniProt P43220). The settings on record: J. Med. Chem. 2015, 58, 7370-7380; cited from earlier work.
In test [2] the target is human serum albumin (Homo sapiens, UniProt P02768). In words: Human serum albumin binding by surface plasmon resonance (Biacore 8K). The settings on record: human serum albumin on CM5 chip, SPR. In general terms: In SPR one partner is held on a chip, and binding of the other changes the refractive index at the surface.
Method: Method: Binding of molecules to serum albumin was characterized by surface plasmon resonance in a Biacore 8K instrument. Serum albumin from different species was covalently bound to CM5 sensor chips surface until 4000 RU was reached. The chip was blocked by 1M ethanolamine with flowrate of 10 μL/min for 420 s. Each molecule sample was diluted and injected at a flow rate of 30 μL/min to allow for binding to chip-bound albumin for 120 s and for dissociation for 300 s. Binding buffer without molecule was sent over the chip at the flow rate of 20 seconds to allow spontaneous dissociation of bound molecule for 30 seconds.
The subject of test [3] is C57BL/6 mice. Description: Body weight loss in C57 lean mice after single s.c. dose. The test is classed as in vivo. The settings on record: 30 nmol/kg s.c. once. The procedure:
Method: 10 week old male C57BL/6 mice were injected subcutaneously with protein once on Day1. Body weight was measured daily and five animals were used for each treatment group. Body weight was monitored for each individual animal. % BW loss=100*(BW on Day n−BW on Day 1)/(BW on Day 1). […] The area under the curve for body weight loss (%) from 0 until 8 days (AUG ΔBW 0-8d) was calculated.

The subject of test [4] is db/db mice. In words: Non-fasting glucose in db/db mice after single s.c. dose. It counts as in vivo. On the procedure:
Method: 10 weeks old male db/db mice were injected subcutaneously with GLP-1 polypeptide conjugate once. […] Delta blood glucose is glucose subtracted by baseline level. […] The area under the curve for delta blood glucose from 0 until 192 hours (AUCΔBG 0-192h) was calculated.

Test [5] concerns the target T1, human serum albumin (human, UniProt P02768 25-609).
T1 construct: also called HSA
Description: SPR (Biacore 8K), albumin on CM5 chip.

GLP-1 receptor, sequence (P43220 24-463, species assumed): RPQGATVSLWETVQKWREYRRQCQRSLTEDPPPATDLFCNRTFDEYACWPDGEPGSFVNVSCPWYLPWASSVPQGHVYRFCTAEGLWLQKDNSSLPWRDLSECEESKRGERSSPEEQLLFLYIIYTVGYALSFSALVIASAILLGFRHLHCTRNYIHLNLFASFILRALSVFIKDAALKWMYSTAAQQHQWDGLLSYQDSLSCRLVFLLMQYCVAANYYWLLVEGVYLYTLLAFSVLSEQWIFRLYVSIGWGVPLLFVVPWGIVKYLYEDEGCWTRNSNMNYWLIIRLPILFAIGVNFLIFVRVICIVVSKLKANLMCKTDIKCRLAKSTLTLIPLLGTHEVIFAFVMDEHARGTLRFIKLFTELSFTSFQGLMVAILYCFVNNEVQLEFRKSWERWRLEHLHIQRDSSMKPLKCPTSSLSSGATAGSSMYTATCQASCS

Take semaglutide: the “loss in GLP-1 receptor binding in presence of human serum albumin (HSA) relative to its unconjugated counterpart” value in test [1] is 939 fold. In test [2], the “Rmax (RU)” value is 55.2 RU. The “AUC ΔBW 0-8 d (day*%)” value is given as −9.3 day*% in test [3] (Study 1 (FIG. 1A)) and −13.2 day*% in test [3] (Study 2 (FIG. 1B)). Moreover, the “AUC ΔBG 0-192 h” value in test [4] (3 nmol/kg s.c. once) was -317.0 mmol·h/L; in test [4] (10 nmol/kg s.c. once) it was -583.4 mmol·h/L; in test [4] (30 nmol/kg s.c. once) it was -527.1 mmol·h/L.

B1: Molecule 002 (peptide)
peptide: H[Aib]EGTFTSDVSSYLEGQAAREFIAWLVRGGGGAQPGAQPGAQPGAQPGAQPGAQPGAQPGAQPGAQPGQK([AEEA-AEEA-γGlu-C18 diacid])P
notes: Mono-acylated GLP-1 polypeptide conjugate; also called 1006
B1: in test [5], the binding result is “binds”.

B2: Molecule 019 (peptide)
peptide: H[Aib]EGTFTSDVSSYLEEQAAREFIAWLVRGGGGAQPGAQPGAQPGAQPGAQPGAQPGAQPGAQPGAQPGQK([AEEA-AEEA-γGlu-C18 diacid])P
notes: Mono-acylated GLP-1 polypeptide conjugate; also called 1023
As to B2, the binding result in test [5] is on record as “binds”.

B3: Molecule 012 (peptide)
peptide: H[Aib]EGTFTSDVSSYLEEQAAK([AEEA-AEEA-γGlu-C18 diacid])EFIAWLVRGGGGAQPGAQPGAQPGAQPGAQPGAQPGAQPGAQPGAQPGQK([AEEA-AEEA-γGlu-C18 diacid])P
notes: Double-acylated GLP-1 polypeptide conjugate
For the molecule B3, in test [5], the binding result is given as “binds”.
